The values below come from patent US20250376662A1, “FORWARD PROGRAMMED BLOOD-BRAIN BARRIER MODEL” (priority 2024, published 2025).

The test relates to HUVECs. Briefly: Gene expression in HUVECs treated with KLF2 lentivirus and CHIR99021. The format is cell-based, human. The method, then: RNA was extracted using Direct-zol RNA Miniprep kit (Zymo, R2050). Reverse transcription was performed to obtain cDNA using GoScript Reverse Transcriptase with Oligo (dT) kit (Promega, A2791). Real-time gene expression analysis was conducted using 25-μl reactions containing SYBR Green PCR Master Mix (Life Technologies, 4309155) along with primers specific for gene of interests (Table 2). PCR was run according to manufacturer protocols on Agilent AriaMX Real-Time PCR system.
Recognizing the strong effect of KLF2 or KLF4 overexpression on BBB gene expression, explored whether activated Wnt signaling impacted the ability of KLF overexpression to modulate BBB gene expression. […] This finding indicates a synergistic effect of these two pathways in inducing BBB gene expression. […] Such shifts in Wnt TF expression have been reported to be correlated with β-catenin levels, and represents higher canonical Wnt activities (Guo et al. 2021). Thus, to further assess the canonical Wnt signaling activation, we used an hPSC Wnt reporter line, H9 7TGP. The engineered 7TGP line expresses GFP under the control of a consensus TCF/LEF binding sequence promoter that reports canonical Wnt/β-catenin signaling activation (Lian et al. 2012; Fuerer and Nusse 2010). […] To assess whether these factors induce BBB gene expression in primary EC, we treated.

As for `Cc1c[nH]c(-c2cnc(NCCNc3ccc(C#N)cn3)nc2-c2ccc(Cl)cc2Cl)n1` [CHIR99021], the “expression of Wnt signaling TF transcripts LEF1 and TCF7” value is “significantly increased the expression”.
